Consider 27 compounds from US7265152B2 (ViroPharma Incorporated, priority 2002, dated 2007).

Where two headings read alike, the source gives them in different places.

Test [1] concerns HCV replicon (BB7 sequence) in Huh-7-Clone A cells. As to the kind of experiment: HCV replicon assay: ELISA of NS5A protein in replicon-containing cells (Inhibition of Viral RNA Replication). The test is classed as cell-based. Conditions: read-out: Replicon. Summed up: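 EC50 taken from an 8-point serially diluted dose curve, with NS5A level as read-out: fixed cells probed with primary monoclonal and HRP-conjugated secondary, TMB developed 30 min, OD 650 nm. Compound exposure 72 h in Huh-7-Clone A replicon cells (BB7 sequence).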

The target in the next test is T1, HCV NS5B (Hepatitis C virus genotype 1b, UniProt Q9WMX2).
T1 construct: fusion protein, of which the carboxyl terminal 21 amino acids were removed to enhance its solubility; His tag (GSHHHHHH); made in house; host or cells: E. coli
In words: Inhibition of viral RNA-dependent RNA polymerase (RdRp), in vitro biochemical assay. Also noted: species or system HCV genotype 1b virus (BB7). Conditions: read-out: HCV pol-BB7 IC50. Summed up: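 IC50 values are the concentrations that halve in vitro RNA synthesis by HCV NS5B polymerase. The enzyme was a C-terminally truncated (Δ21), His-tagged genotype 1b (BB7 consensus) protein purified from E. coli.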

[2] abbreviates: Hepatitis C virus, HCV replicon assay, ranges of EC50.
Where [3] appears, read: HCV NS5B RdRp, BB7, activity class.
Where [4] appears, read: Hepatitis C virus, Huh-7-Clone A, NS5A ELISA, 72-hour incubation, ranges of EC50.
The mark [5] stands for this setting: purified His-tagged NS5B (BB7), carboxyl terminal 21 amino acids removed.
[6] abbreviates: Hepatitis C virus, HCV replicon, range of EC50.
[7] abbreviates: HCV NS5B RdRp, BB7, reported as range class.
The mark [8] stands for this setting: HCV NS5B RdRp, BB7, class symbols A-D.
Where [9] appears, read: Hepatitis C virus, ranges of EC50 in HCV replicon assay.
Where [10] appears, read: Hepatitis C virus, HCV replicon assay, ranges of 50% effective concentration (EC50).
[11] abbreviates: HCV NS5B polymerase, BB7 (genotype 1b), values given as range classes A-D.
Where [12] appears, read: HCV NS5B RdRp, BB7 (genotype 1b), reported as class symbols.

The term IC50 denotes the concentration needed to halve the response being measured.

On to `CNC(=O)c1c(-c2ccc(F)cc2)oc2cc(-c3c(COC)noc3C)c(OC)cc12` [Example 336, 2-(4-Fluoro-phenyl)-5-methoxy-6-(3-methoxymethyl-5-methyl-isoxazol-4-yl)-benzofuran-3-carboxylic acid methylamide], for which the EC50 in test [1] (setting [2]) was less than 1000 nM. At HCV NS5B (setting [3]), the IC50 was no more than 500 nM.

For `CNC(=O)c1c(-c2ccccc2)oc2ccc(COC)cc12` [Example 78, 5-Methoxymethyl-2-phenyl-benzofuran-3-carboxylic acid methylamide], the EC50 in test [1] (setting [4]) was less than 30000 nM. For the same compound, at HCV NS5B (setting [5]), the IC50 was 500 to 5000 nM.

Take `CNC(=O)c1c(-c2ccc(F)cc2)oc2cc(-c3ccncc3)c(OC(C)C)cc12` [Example 177, 2-(4-Fluoro-phenyl)-5-isopropoxy-6-pyridin-4-yl-benzofuran-3-carboxylic acid methylamide]: the EC50 in test [1] (setting [6]) is less than 10000 nM. Besides, on HCV NS5B (setting [7]), the IC50 is no more than 500 nM.

As to `CCOC(=O)c1csc(CN(c2cc3oc(-c4ccc(F)cc4)c(C(=O)NC)c3cc2OC(C)C)S(C)(=O)=O)n1` [Example 286, 2-({[2-(4-Fluoro-phenyl)-5-isopropoxy-3-methylcarbamoyl-benzofuran-6-yl]-methanesulfonylamino}-methyl)-thiazole-4-carboxylic acid ethyl ester], the EC50 in test [1] (setting [2]) was less than 10000 nM. Moreover, the IC50 on HCV NS5B (setting [8]) is no more than 500 nM.

For the compound `CNC(=O)c1c(-c2ccc(F)cc2)oc2cc(NCC3CC3)c(OC(C)C)cc12` [Example 115, 6-(Cyclopropylmethyl-amino)-2-(4-fluoro-phenyl)-5-isopropoxy-benzofuran-3-carboxylic acid methylamide], in test [1] (setting [9]), the EC50 was less than 1000 nM. For the same compound, on HCV NS5B (HCV NS5B RdRp, BB7 genotype 1b), the IC50 is no more than 500 nM.

Consider `CNC(=O)c1c(-c2ccc(F)cc2)oc2cc(-c3nocc3CCO)c(OC)cc12` [Example 41, 2-(4-Fluoro-phenyl)-6-[4-(2-hydroxy-ethyl)-isoxazol-3-yl]-5-methoxy-benzofuran-3-carboxylic acid methylamide], for which the EC50 in test [1] (setting [4]) is less than 1000 nM. Also, at HCV NS5B (setting [5]), the IC50 is no more than 500 nM.

Consider `CCc1ccc(-c2oc3ccc(F)cc3c2C(=O)NC)cc1` [Example 83, 2-(4-Ethyl-phenyl)-5-fluoro-benzofuran-3-carboxylic acid methylamide], for which the EC50 in test [1] (setting [4]) is less than 10000 nM. Moreover, the IC50 on HCV NS5B (setting [5]) is no more than 500 nM.

As for `CNC(=O)c1c(-c2ccc(F)cc2)oc2cc(N(C)S(C)(=O)=O)c(OCc3ncc[nH]3)cc12` [Example 405, 2-(4-Fluoro-phenyl)-5-(1H-imidazol-2-ylmethoxy)-6-(methanesulfonyl-methyl-amino)-benzofuran-3-carboxylic acid methylamide], in test [1] (setting [10]), the EC50 was less than 1000 nM. Moreover, at HCV NS5B (setting [11]), the IC50 is no more than 500 nM.

Regarding “2-(4-Fluoro-phenyl)-5-isopropoxy-6-ureido-benzofuran-3-carboxylic acid methylamide [Example 135]”, in test [1] (ranges of EC50 in HCV replicon assay), the EC50 was less than 10000 nM. The IC50 on HCV NS5B (HCV NS5B RdRp, BB7 genotype 1b) was no more than 500 nM.

Regarding `CNC(=O)c1c(-c2ccc(F)cc2)oc2cc(N(COC)S(C)(=O)=O)c(O)cc12` [Example 444, 2-(4-Fluoro-phenyl)-5-hydroxy-6-(methanesulfonyl-methoxymethyl-amino)-benzofuran-3-carboxylic acid methylamide], the EC50 in test [1] (setting [2]) was less than 10000 nM. For the same compound, at HCV NS5B (setting [12]), the IC50 is no more than 500 nM.

For `C=CCOc1cc2c(C(=O)NC)c(-c3ccc(F)cc3)oc2cc1N(C)S(C)(=O)=O` [Example 349, 5-Allyloxy-2-(4-fluoro-phenyl)-6-(methanesulfonyl-methyl-amino)-benzofuran-3-carboxylic acid methylamide], in test [1] (setting [2]), the EC50 is less than 1000 nM. Further, the IC50 at HCV NS5B (setting [3]) was no more than 500 nM.

With `CNC(=O)c1c(-c2ccc(F)cc2)oc2cc(NC(C)=O)c(OC(C)C)cc12` [Example 98, 6-Acetylamino-2-(4-fluoro-phenyl)-5-isopropoxy-benzofuran-3-carboxylic acid methylamide], the EC50 in test [1] (setting [9]) was less than 10000 nM. Moreover, the IC50 on HCV NS5B (HCV NS5B RdRp, BB7 genotype 1b) is no more than 500 nM.

As for `CNC(=O)c1c(-c2ccc(F)cc2)oc2cc(N(C)S(C)(=O)=O)c(OCc3nccs3)cc12` [Example 388, 2-(4-Fluoro-phenyl)-6-(methanesulfonyl-methyl-amino)-5-(thiazol-2-ylmethoxy)-benzofuran-3-carboxylic acid methylamide], the EC50 in test [1] (setting [10]) was less than 1000 nM. Further, the IC50 on HCV NS5B (setting [11]) was no more than 500 nM.

For `CNC(=O)c1c(-c2ccc(F)cc2)oc2cc(-c3cc(C4CC4)on3)c(OC(C)C)cc12` [Example 274, 6-(5-Cyclopropyl-isoxazol-3-yl)-2-(4-fluoro-phenyl)-5-isopropoxy-benzofuran-3-carboxylic acid methylamide], in test [1] (setting [2]), the EC50 was less than 1000 nM. Further, the IC50 on HCV NS5B (setting [8]) was no more than 500 nM.

For `CNC(=O)c1c(-c2ccc(F)cc2)oc2cc(N(COC)S(C)(=O)=O)c(OCc3ccc(C#N)cc3)cc12` [Example 446, 5-(4-Cyano-benzyloxy)-2-(4-fluoro-phenyl)-6-(methanesulfonyl-methoxymethyl-amino)-benzofuran-3-carboxylic acid methylamide], in test [1] (setting [2]), the EC50 is less than 1000 nM. The IC50 on HCV NS5B (setting [12]) is no more than 500 nM.

Take `CCNC(=O)c1c(-c2ccc(F)cc2)oc2cc(NS(C)(=O)=O)c(OC(C)C)cc12` [Example 200, 2-(4-Fluoro-phenyl)-5-isopropoxy-6-methanesulfonylamino-benzofuran-3-carboxylic acid ethylamide]: the EC50 in test [1] (setting [6]) was less than 1000 nM. The IC50 at HCV NS5B (setting [7]) was no more than 500 nM.

Turning to `CNC(=O)c1c(-c2ccc(F)cc2)oc2ccc(OC(F)F)cc12` [Example 7, 5-Difluoromethoxy-2-(4-fluoro-phenyl)-benzofuran-3-carboxylic acid methylamide], the EC50 in test [1] (setting [4]) is less than 10000 nM. Moreover, the IC50 at HCV NS5B (setting [5]) lay within 500 to 5000 nM.

`CCCOc1cc2c(C(=O)NC)c(-c3ccc(F)cc3)oc2cc1N(C)S(C)(=O)=O` [Example 348, 2-(4-Fluoro-phenyl)-6-(methanesulfonyl-methyl-amino)-5-propoxy-benzofuran-3-carboxylic acid methylamide]: the EC50 in test [1] (setting [2]) was less than 1000 nM. In addition, the concentration for half-maximal inhibition (IC50) on HCV NS5B (setting [3]) is no more than 500 nM.

Take `CNC(=O)c1c(-c2ccc(F)cc2)oc2cc(OCc3nnnn3C)c(OC)cc12` [Example 211, 2-(4-Fluoro-phenyl)-5-methoxy-6-(1-methyl-1H-tetrazol-5-ylmethoxy)-benzofuran-3-carboxylic acid methylamide]: in test [1] (setting [6]), the EC50 was less than 1000 nM. At HCV NS5B (setting [7]), the IC50 was no more than 500 nM.

For the compound `CNC(=O)c1c(-c2ccc(F)cc2)oc2cc(C(C)(C)O)c(OC)cc12` [Example 49, 2-(4-Fluoro-phenyl)-6-(1-hydroxy-1-methyl-ethyl)-5-methoxy-benzofuran-3-carboxylic acid methylamide], the EC50 in test [1] (setting [4]) is less than 1000 nM. For the same compound, the IC50 on HCV NS5B (setting [5]) was no more than 500 nM.

Regarding `CNC(=O)c1c(-c2ccc(F)c(C)c2)oc2ccc(OC)cc12` [Example 71, 2-(4-Fluoro-3-methyl-phenyl)-5-methoxy-benzofuran-3-carboxylic acid methylamide], the EC50 in test [1] (setting [4]) was less than 30000 nM. The IC50 on HCV NS5B (setting [5]) is no more than 500 nM.

In the case of `CNC(=O)c1c(-c2ccc(F)cc2)oc2cc(N3CCOCC3)c(OCc3cccc(C(=O)O)c3)cc12` [Example 268, 3-[2-(4-Fluoro-phenyl)-3-methylcarbamoyl-6-morpholin-4-yl-benzofuran-5-yloxymethyl]-benzoic acid], the EC50 in test [1] (setting [2]) was less than 10000 nM. In addition, the IC50 at HCV NS5B (setting [8]) was no more than 500 nM.

As to `CCCOc1cc2c(C(=O)NC)c(-c3ccc(F)cc3)oc2cc1N(COC)S(C)(=O)=O` [Example 443, 2-(4-Fluoro-phenyl)-6-(methanesulfonyl-methoxymethyl-amino)-5-propoxy-benzofuran-3-carboxylic acid methylamide], the EC50 in test [1] (setting [2]) is less than 1000 nM. In addition, at HCV NS5B (setting [12]), the 50% inhibitory concentration (IC50) was no more than 500 nM.

Take `CNC(=O)c1c(-c2cccnc2)oc2ccc(Cl)cc12` [Example 89, 5-Chloro-2-pyridin-3-yl-benzofuran-3-carboxylic acid methylamide]: the EC50 in test [1] (setting [4]) was greater than 30000 nM. The half-maximal inhibitory concentration (IC50) at HCV NS5B (setting [5]) lay in the range of 500 to 5000 nM.

On to `CNC(=O)c1c(-c2ccccc2)oc2ccc(OC)c(C)c12` [Example 25, 5-Methoxy-4-methyl-2-phenyl-benzofuran-3-carboxylic acid methylamide], for which, in test [1] (setting [4]), the EC50 is greater than 30000 nM. Moreover, the IC50 on HCV NS5B (setting [5]) was greater than 30000 nM.

Take `CNC(=O)c1c(-c2ccc(F)cc2)oc2cc(-c3nc(C)nn3C)c(OC)cc12` [Example 387, 6-(2,5-Dimethyl-2H-[1,2,4]triazol-3-yl)-2-(4-fluoro-phenyl)-5-methoxy-benzofuran-3-carboxylic acid methylamide]: the EC50 in test [1] (setting [10]) is less than 10000 nM. On HCV NS5B (setting [11]), the IC50 was in the range of 500 to 5000 nM.

As for `CNC(=O)c1c(-c2ccc(F)cc2)oc2cc(-c3cccc(S(C)(=O)=O)c3)c(OC(C)C)cc12` [Example 178, 2-(4-Fluoro-phenyl)-5-isopropoxy-6-(3-methanesulfonyl-phenyl)-benzofuran-3-carboxylic acid methylamide], the EC50 in test [1] (setting [6]) was less than 10000 nM. Also, the IC50 at HCV NS5B (setting [7]) was no more than 500 nM.
